Source: patent publication US20250230140A1 (Viva Star Biosciences (Suzhou) Co., Ltd., priority 2021, published 2025)

Biological target: T1, LPA1 (Homo sapiens, UniProt Q92633)
T1 construct: ProLink (β-galactosidase enzyme-donor fragment); host or cells: CHO-K1 (PathHunter EDG2 β-Arrestin cell line)
Assay: LPA1 calcium flux assay (LPA1 functional antagonist assay)
Format: cell-based
Details: PathHunter CHO-K1 EDG2 β-Arrestin cells, calcium indicator dye, stimulated with EC80 concentration of LPA, FLIPR
Protocol: The effectiveness of compounds of the present invention as LPA1 inhibitors can be determined in an LPA1 functional antagonist assay as follows.
PathHunter® CHO-K1 EDG2 β-Arrestin Cell Line (Eurofins DiscoverX Corporation, Cat #93-0644C2) were plated overnight (11,500 cells/well) in poly-D-lysine coated 384-well microplates (Corning, Cat #356697) in AssayComplete™ Cell Plating 35 Reagent (Eurofins DiscoverX Corporation, Cat #93-0563R35). Following overnight culture, cells were loaded with calcium indicator dye from the HitHunter Calcium No WashPLUS Assay kit (Eurofins DiscoverX Corporation, Cat #93-0091) for 45 minutes at 37° C. Test compounds solubilized in DMSO (Sigma, Cat #276855) on 384-well polypropylene microplates (Greiner bio-one, Cat #781280) were then diluted to intermediate concentration with assay buffer [1×HBSS calcium/magnesium (Corning, Cat #21-023-CM) and 20 mM HEPES (Corning, Cat #25-060-Cl)] before addition to cells by Agilent Velocity 11 with a final concentration of 0.4% DMSO. After compound addition, assay plates were equilibrated to room temperature for 30 minutes. Cells were then stimulated by addition of EC80 concentration of LPA (Cat #, 10010093) in assay buffer containing [1×HBSS calcium/magnesium (Corning, Cat #21-023-CM), 20 mM HEPES (Corning, Cat #25-060-Cl), and 0.1% BSA (Sigma, Cat #A8806)] using Molecular Devices FLIPR Tetra PLUS®. IC50 values were determined by Chemical and Biological Information System from ChemInnovation Software, Inc.
The compounds of this invention were tested for their activity to inhibit LPA1 as determined in an LPA1 functional antagonist assay as described herein.

T1 sequence (Q92633 whole entry, the tested form may be a part): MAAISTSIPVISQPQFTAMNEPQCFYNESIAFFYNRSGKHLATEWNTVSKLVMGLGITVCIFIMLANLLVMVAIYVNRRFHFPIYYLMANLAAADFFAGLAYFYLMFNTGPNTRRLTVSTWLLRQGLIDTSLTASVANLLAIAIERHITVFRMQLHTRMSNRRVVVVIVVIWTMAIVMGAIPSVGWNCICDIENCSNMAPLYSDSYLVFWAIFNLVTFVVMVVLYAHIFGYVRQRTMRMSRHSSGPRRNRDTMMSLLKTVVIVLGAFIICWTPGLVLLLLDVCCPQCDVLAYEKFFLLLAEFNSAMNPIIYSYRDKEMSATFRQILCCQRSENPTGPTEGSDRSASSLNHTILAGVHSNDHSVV

| Compound | IC50 |
| --- | --- |
| CCCc1ccc(=O)n(Cc2c(-c3ccc([C@@H]4CCC[C@@H](CC(=O)O)O4)c(CC)n3)nnn2C)c1 (single isomer, unassigned) [Example 24, 2-((2S,6S) or (2R,6R)-6-(2-ethyl-6-(1-methyl-5-((2-oxo-5-propylpyridin-1(2H)-yl)methyl)-1H-1,2,3-triazol-4-yl)pyridin-3-yl)tetrahydro-2H-pyran-2-yl)acetic acid] | 0.5 to 5 µM |
| CCc1nc(-c2nnn(C)c2COc2nccc(C3CCC3)n2)ccc1C1CCOC(CC(=O)O)C1 (single isomer, unassigned) [Example 36, 2-(4-(6-(5-(((4-cyclobutylpyrimidin-2-yl)oxy)methyl)-1-methyl-1H-1,2,3-triazol-4-yl)-2-ethylpyridin-3-yl)tetrahydro-2H-223,423-pyran-2-yl)acetic acid] | < 0.1 µM |
| CCCc1ccc(=O)n(Cc2c(-c3ccc(N4CCC(CC(=O)O)C4)c(C)n3)nnn2C)c1 (centres unmarked) [Example 2, 2-(1-(2-methyl-6-(1-methyl-5-((2-oxo-5-propylpyridin-1(2H)-yl)methyl)-1H-1,2,3-triazol-4-yl)pyridin-3-yl)pyrrolidin-3-yl)acetic acid] | 0.5 to 5 µM |
| Cc1nc(-c2nnn(C)c2COc2nccc(C3CCC3)n2)ccc1N1CC[C@@H](CC(=O)O)C1 [Example 6, (S)-2-(1-(6-(5-(((4-cyclobutylpyrimidin-2-yl)oxy)methyl)-1-methyl-1H-1,2,3-triazol-4-yl)-2-methylpyridin-3-yl)pyrrolidin-3-yl)acetic acid] | < 0.1 µM |
| CCc1nc(-c2nnn(C)c2COc2cc(-n3cccn3)ncn2)ccc1C1CCOC(CC(=O)O)C1 (centres unmarked) [Example 33, 2-(4-(6-(5-(((6-(1H-pyrazol-1-yl)pyrimidin-4-yl)oxy)methyl)-1-methyl-1H-1,2,3-triazol-4-yl)-2-ethylpyridin-3-yl)tetrahydro-2H-pyran-2-yl)acetic acid] | 0.1 to 0.5 µM |
| CCc1nc(-c2nnn(C)c2COc2nccc(C3CCC3)n2)ccc1N1CC[C@@H]([C@H](C)C(=O)O)C1 [Example 10] | < 0.1 µM |
| CCc1nc(-c2nnn(C)c2COc2nccc(C3CCC3)n2)ccc1C1CCOC(CC(=O)O)C1 (single isomer, unassigned) [Example 35, 2-(4-(6-(5-(((4-cyclobutylpyrimidin-2-yl)oxy)methyl)-1-methyl-1H-1,2,3-triazol-4-yl)-2-ethylpyridin-3-yl)tetrahydro-2H-223,423-pyran-2-yl)acetic acid] | < 0.1 µM |
| CCc1nc(-c2nnn(C)c2COc2nccc(C3CCC3)n2)ccc1N1CC[C@H]([C@@H](C)C(=O)O)C1 [Example 9] | < 0.1 µM |

The remaining lines, values ahead:

| IC50 | Compound |
| --- | --- |
| 0.1 to 0.5 µM | Cc1nc(-c2nnn(C)c2COc2cc(-n3cccn3)ncn2)ccc1N1CC[C@H](CC(=O)O)C1 [Example 7, (R)-2-(1-(6-(5-(((6-(1H-pyrazol-1-yl)pyrimidin-4-yl)oxy)methyl)-1-methyl-1H-1,2,3-triazol-4-yl)-2-methylpyridin-3-yl)pyrrolidin-3-yl)acetic acid] |
| 0.5 to 5 µM | CCCc1ccc(=O)n(Cc2c(-c3ccc(N4CC[C@H](C(C)(C)C(=O)O)C4)c(CC)n3)nnn2C)c1 [Example 16, (R)-2-(1-(2-ethyl-6-(1-methyl-5-((2-oxo-5-propylpyridin-1(2H)-yl)methyl)-1H-1,2,3-triazol-4-yl)pyridin-3-yl)pyrrolidin-3-yl)-2-methylpropanoic acid] |
| < 0.1 µM | CCc1nc(-c2nnn(C)c2COc2nccc(C3CCC3)n2)ccc1C1CCOC(CC(=O)O)C1 (centres unmarked) [Example 32, 2-(4-(6-(5-(((4-cyclobutylpyrimidin-2-yl)oxy)methyl)-1-methyl-1H-1,2,3-triazol-4-yl)-2-ethylpyridin-3-yl)tetrahydro-2H-pyran-2-yl)acetic acid] |
| 5 to 10000 µM | CCCc1ccc(=O)n(Cc2c(-c3ccc(C4CN(CC(=O)O)CC(F)(F)C4)c(C)n3)nnn2C)c1 (single isomer, unassigned) [Example 40, (R) or (S)-2-(3,3-difluoro-5-(2-methyl-6-(1-methyl-5-((2-oxo-5-propylpyridin-1(2H)-yl)methyl)-1H-1,2,3-triazol-4-yl)pyridin-3-yl)piperidin-1-yl)acetic acid] |
| < 0.1 µM | CCCc1ccc(=O)n(Cc2c(-c3ccc(N4CC[C@@H](C(C)(C)C(=O)O)C4)c(C)n3)nnn2C)c1 [Example 15, (S)-2-methyl-2-(1-(2-methyl-6-(1-methyl-5-((2-oxo-5-propylpyridin-1(2H)-yl)methyl)-1H-1,2,3-triazol-4-yl)pyridin-3-yl)pyrrolidin-3-yl)propanoic acid] |
| 0.5 to 5 µM | CCCc1ccc(=O)n(Cc2c(-c3ccc(C4CC(CC(=O)O)CCO4)c(C)n3)nnn2C)c1 (centres unmarked) [Example 27, 2-[2-(2-methyl-6-{1-methyl-5-[(2-oxo-5-propyl-1,2-dihydropyridin-1-yl)methyl]-1H-1,2,3-triazol-4-yl}pyridin-3-yl)oxan-4-yl]acetic acid] |
| < 0.1 µM | CCc1nc(-c2nnn(C)c2COc2nccc(C3CCC3)n2)ccc1N1CC[C@@H]([C@@H](C)C(=O)O)C1 [Example 8] |
| < 0.1 µM | CCc1nc(-c2nnn(C)c2COc2nccc(C3CCC3)n2)ccc1N1CC[C@@H](CC(=O)O)C1 [Example 1, 2-[(3S)-1-[6-(5-{[(4-cyclobutylpyrimidin-2-yl)oxy]methyl}-1-methyl-1H-1,2,3-triazol-4-yl)-2-ethylpyridin-3-yl]pyrrolidin-3-yl]acetic acid] |
| < 0.1 µM | CCCc1ccc(=O)n(Cc2c(-c3ccc(O[C@H]4CCC[C@H](C(=O)O)C4)c(CC)n3)nnn2C)c1 [Example 43, (1S,3S)-3-((2-ethyl-6-(1-methyl-5-((2-oxo-5-propylpyridin-1(2H)-yl)methyl)-1H-1,2,3-triazol-4-yl)pyridin-3-yl)oxy)cyclohexanecarboxylic acid] |
| < 0.1 µM | CCc1nc(-c2nnn(C)c2COc2nccc(C3CCC3)n2)ccc1N1CC[C@H]([C@H](C)C(=O)O)C1 [Example 11] |
| 0.5 to 5 µM | CCCc1ccc(=O)n(Cc2c(-c3ccc(C4CCOC(CC(=O)O)C4)c(CC)n3)nnn2C)c1 (centres unmarked) [Example 31, 2-(4-(2-ethyl-6-(1-methyl-5-((2-oxo-5-propylpyridin-1(2H)-yl)methyl)-1H-1,2,3-triazol-4-yl)pyridin-3-yl)tetrahydro-2H-pyran-2-yl)acetic acid] |
| 0.1 to 0.5 µM | Cc1nc(-c2nnn(C)c2COc2nccc(C3CCC3)n2)ccc1C1CC(CC(=O)O)CCO1 (centres unmarked) [Example 26, 2-(2-(6-(5-(((4-cyclobutylpyrimidin-2-yl)oxy)methyl)-1-methyl-11H-1,2,3-triazol-4-yl)-2-methylpyridin-3-yl)tetrahydro-2H-pyran-4-yl)acetic acid] |
